Molecular target: T1, Adenosine receptor A2b (Homo sapiens, UniProt P29275)
T1 sequence (P29275 whole entry): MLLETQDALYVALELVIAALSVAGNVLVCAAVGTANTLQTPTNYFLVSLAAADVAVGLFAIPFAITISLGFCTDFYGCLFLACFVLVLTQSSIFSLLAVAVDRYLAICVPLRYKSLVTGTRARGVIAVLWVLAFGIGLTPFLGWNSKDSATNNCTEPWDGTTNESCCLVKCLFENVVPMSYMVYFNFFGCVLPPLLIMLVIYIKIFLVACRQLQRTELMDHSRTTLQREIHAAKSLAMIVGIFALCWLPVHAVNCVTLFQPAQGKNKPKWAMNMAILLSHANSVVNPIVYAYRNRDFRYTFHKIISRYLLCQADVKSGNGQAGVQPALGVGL
Test: Antagonist activity against human Adenosine A2b receptor
Format: functional

Structure (SMILES)	Ki
CCCn1c(=O)c2[nH]c(-c3cc(OCC(=O)O)no3)nc2n(CCC)c1=O	18 nM
CCCn1c(=O)c2[nH]c(-c3ccc(OCC(=O)Nc4ccc(F)cc4)nc3)nc2n(CCC)c1=O	4.8 nM
